Results published in patent US9051321B2, “Heterocyclic acrylamides and their use as pharmaceuticals” (FAB PHARMA S.A.S, priority 2009, dated 2015).

Key:
[1] = biological target: HSA (human albumin) (Homo sapiens (Human), UniProt P02768); assay: HSA binding analysis using a chiral HSA column; assay type: in vitro ADME; conditions: for k′ (capacity factor): 37° C., pH 7.0, k′=(Tr-T0)/T0; for HSA binding Conclusion: classification of AB %
Description: The test system used in this analysis was an HSA chiral column.
The relationship between the retention time (Tr) and percentage of albumin binding (AB %) depended on the dead time (T0) and the capacity factor (k′): AB %=[k′/(k′+1)]*100 • where k′=(Tr-T0)/T0

[2] = tested on: methicillin susceptible Staphylococcus aureus strain ATCC 29213; assay: In vivo antibacterial activity, experimental model of thigh infection in neutropenic mice; conditions: 1.5 h after infection, neutropenic female Swiss mice, 20 h
[3] = biological target: E. coli FabI (Escherichia coli (strain K12), UniProt P0AEK4); conditions: cited from earlier work
Sequence of E. coli FabI (P0AEK4 whole entry): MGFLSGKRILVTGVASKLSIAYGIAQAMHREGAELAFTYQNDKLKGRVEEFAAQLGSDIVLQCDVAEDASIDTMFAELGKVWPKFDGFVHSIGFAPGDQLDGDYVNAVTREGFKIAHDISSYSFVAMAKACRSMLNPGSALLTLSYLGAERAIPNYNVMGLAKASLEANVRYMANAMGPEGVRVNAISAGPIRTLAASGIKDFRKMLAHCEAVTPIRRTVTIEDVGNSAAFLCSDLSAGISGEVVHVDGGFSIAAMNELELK

Sequence of HSA (human albumin) (P02768 25-609): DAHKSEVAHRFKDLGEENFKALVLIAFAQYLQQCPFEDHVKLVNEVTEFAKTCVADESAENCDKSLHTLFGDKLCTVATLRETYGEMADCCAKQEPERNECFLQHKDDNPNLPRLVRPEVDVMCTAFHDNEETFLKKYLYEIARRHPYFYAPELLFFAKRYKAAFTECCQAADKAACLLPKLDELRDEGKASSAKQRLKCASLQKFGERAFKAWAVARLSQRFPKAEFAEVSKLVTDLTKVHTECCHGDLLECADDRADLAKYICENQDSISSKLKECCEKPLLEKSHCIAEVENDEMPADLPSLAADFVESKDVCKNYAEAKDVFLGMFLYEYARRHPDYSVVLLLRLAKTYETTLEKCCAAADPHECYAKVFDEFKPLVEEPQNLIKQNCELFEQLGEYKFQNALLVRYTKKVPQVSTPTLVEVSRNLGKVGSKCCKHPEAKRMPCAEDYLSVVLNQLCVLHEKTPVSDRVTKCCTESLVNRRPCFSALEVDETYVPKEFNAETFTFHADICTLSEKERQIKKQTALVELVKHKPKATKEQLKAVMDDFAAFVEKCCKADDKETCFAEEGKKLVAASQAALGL

For `O=C1CCc2cc(/C=C/C(=O)N3CC(OCc4cccs4)C3)cnc2N1` [Example 12, 6-{(1E)-3-Oxo-3-[3-(2-thienylmethoxy)azetidin-1-yl]prop-1-en-1-yl}-3,4-dihydro-1,8-naphthyridin-2(1H)-one], the “affinity in vitro to human albumin” value [1] was “low affinity”, the “k′ (capacity factor)” value [1] was 0.826 and the “HSA binding Conclusion” value [1] was “Low binding (AB≦75%: Low binding)”. For the same compound, the “in vivo antibacterial activity (bacterial burden in the thigh of infected mice)” value ([2]; 100 mg/kg orally) was “able to protect mice against thigh dissemination”.
In the case of `CCCCCOC1CN(C(=O)/C=C/c2cnc3c(c2)CCC(=O)N3)C1` [Example 15, 6-{(1E)-3-Oxo-3-[3-(pentyloxy)azetidin-1-yl]prop-1-en-1-yl}-3,4-dihydro-1,8-naphthyridin-2(1H)-one], the “in vivo antibacterial activity (bacterial burden in the thigh of infected mice)” value ([2]; 50 mg/kg subcutaneously) is reported as “able to protect mice against thigh dissemination”.
With `O=C1CCc2cc(/C=C/C(=O)N3CC(OCCc4cccs4)C3)cnc2N1` [Example 29, (E)-6-(3-Oxo-3-(3-(2-(thiophen-2-yl)ethoxy)azetidin-1-yl)prop-1-enyl)-3,4-dihydro-1,8-naphthyridin-2(1H)-one] the “affinity in vitro to human albumin” value [1] was “low affinity”, the “k′ (capacity factor)” value [1] was 1.259 and the “HSA binding Conclusion” value [1] was “Low binding (AB≦75%: Low binding)”.
With `O=C1CCc2cc(/C=C/C(=O)N3CC(c4cc5ccccc5o4)C3)cnc2N1` [Example 59, (E)-6-(3-(3-(Benzofuran-2-yl)azetidin-1-yl)-3-oxoprop-1-enyl)-3,4-dihydro-1,8-naphthyridin-2(1H)-one] the “affinity in vitro to human albumin” value [1] was “moderate affinity”, the “k′ (capacity factor)” value [1] was 4.678 and the “HSA binding Conclusion” value [1] was “Moderate”.
For `CCCCOC1CN(C(=O)/C=C/c2cnc3c(c2)CC2(CCN(C)CC2)C(=O)N3)C1` [Example 63, (E)-6-(3-(3-Butoxyazetidin-1-yl)-3-oxoprop-1-enyl)-1′-methyl-1H-spiro[[1,8]naphthyridine-3,4′-piperidin]-2(4H)-one], the “affinity in vitro to human albumin” value [1] was “low affinity”, the “k′ (capacity factor)” value [1] was 1.288 and the “HSA binding Conclusion” value [1] was “Low binding (AB≦75%: Low binding)”.
In the case of `Cc1c(C2CN(C(=O)/C=C/c3cnc4c(c3)CCC(=O)N4)C2)oc2ccccc12` [Example 67, (E)-6-(3-(3-(3-Methylbenzofuran-2-yl)azetidin-1-yl)-3-oxoprop-1-enyl)-3,4-dihydro-1,8-naphthyridin-2(1H)-one], the “affinity in vitro to human albumin” value [1] is reported as “moderate affinity”, the “k′ (capacity factor)” value [1] is reported as 8.360 and the “HSA binding Conclusion” value [1] is reported as “Moderate”.
For `Cc1c(C2CN(C(=O)/C=C/c3cnc4c(c3)CC3(CCN(C)CC3)C(=O)N4)C2)oc2ccccc12` [Example 68, (E)-1′-Methyl-6-(3-(3-(3-methylbenzofuran-2-yl)azetidin-1-yl)-3-oxoprop-1-enyl)-1H-spiro[[1,8]naphthyridine-3,4′-piperidin]-2(4H)-one], the “affinity in vitro to human albumin” value [1] was “high affinity”, the “k′ (capacity factor)” value [1] was 11.216 and the “HSA binding Conclusion” value [1] was “High binding (AB≦90%: High binding)”.
In the case of `CN1CCC2(CC1)Cc1cc(/C=C/C(=O)N3CC(c4cc5ccccc5o4)C3)cnc1NC2=O` [Example 69, (E)-6-(3-(3-(Benzofuran-2-yl)azetidin-1-yl)-3-oxoprop-1-en-1-yl)-1′-methyl-1H-spiro[[1,8]naphthyridine-3,4′-piperidin]-2(4H)-one], the “affinity in vitro to human albumin” value [1] is reported as “moderate affinity”, the “k′ (capacity factor)” value [1] is reported as 7.730 and the “HSA binding Conclusion” value [1] is reported as “Moderate”.
With `CCCO/N=C(\C)C1CN(C(=O)/C=C/c2cnc3c(c2)CCC(=O)N3)C1` [Example 70, 6-((E)-3-Oxo-3-(3-((E)-1-(propoxyimino)ethyl)azetidin-1-yl)prop-1-enyl)-3,4-dihydro-1,8-naphthyridin-2(1H)-one] the “affinity in vitro to human albumin” value [1] was “low affinity”, the “k′ (capacity factor)” value [1] was 0.580 and the “HSA binding Conclusion” value [1] was “Low binding (AB≦75%: Low binding)”.
In the case of `CCCO/N=C(/C)C1CN(C(=O)/C=C/c2cnc3c(c2)CCC(=O)N3)C1` [Example 71, 6-((E)-3-Oxo-3-(3-((Z)-1-(propoxyimino)ethyl)azetidin-1-yl)prop-1-enyl)-3,4-dihydro-1,8-naphthyridin-2(1H)-one], the “affinity in vitro to human albumin” value [1] is reported as “low affinity”, the “k′ (capacity factor)” value [1] is reported as 0.404 and the “HSA binding Conclusion” value [1] is reported as “Low binding (AB≦75%: Low binding)”.
For `Oc1cc(Cl)ccc1Oc1ccc(Cl)cc1Cl` [Triclosan], the “type of inhibition of E. coli FabI” value [3] is given as “reversible, tight-binding inhibitor”.
